In patent US8148391B2 (Cephalon, Inc., priority 2006, dated 2012):

Assays:
[1] = biological target: T1, c-Met (cytoplasmic domain) (Homo sapiens, UniProt P08581); experiment: c-Met Kinase Assay (same methods as for ALK, with modifications); assay type: biochemical; conditions: 1 μM ATP (Km level); read-out: cMet Activity (c-Met Kinase Inhibition, IC50)
T1 construct: 10 ng/mL c-Met (cytoplasmic domain, Invitrogen Corporation #PV3143); purchased Invitrogen Corporation PV3143
Summary of the method: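 Steps: coat wells with PLC-γ (10 μg/mL, Tris-buffered saline); add 10 ng/mL c-Met cytoplasmic domain to initiate; incubate 15 min, 37° C; detect phosphoproduct via Eu-N1 PT66 antibody.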

[2] = biological target: T2, baculovirus-expressed ALK (Homo sapiens, UniProt Q9UM73); experiment: ALK Kinase Assay (ELISA-type, time-resolved fluorescence); assay type: biochemical; conditions: 1 μM ATP (Km level); read-out: ALK Activity (ALK Kinase Inhibition, IC50)
T2 construct: host or cells: baculovirus expression system
T2 sequence (Q9UM73 19-1620): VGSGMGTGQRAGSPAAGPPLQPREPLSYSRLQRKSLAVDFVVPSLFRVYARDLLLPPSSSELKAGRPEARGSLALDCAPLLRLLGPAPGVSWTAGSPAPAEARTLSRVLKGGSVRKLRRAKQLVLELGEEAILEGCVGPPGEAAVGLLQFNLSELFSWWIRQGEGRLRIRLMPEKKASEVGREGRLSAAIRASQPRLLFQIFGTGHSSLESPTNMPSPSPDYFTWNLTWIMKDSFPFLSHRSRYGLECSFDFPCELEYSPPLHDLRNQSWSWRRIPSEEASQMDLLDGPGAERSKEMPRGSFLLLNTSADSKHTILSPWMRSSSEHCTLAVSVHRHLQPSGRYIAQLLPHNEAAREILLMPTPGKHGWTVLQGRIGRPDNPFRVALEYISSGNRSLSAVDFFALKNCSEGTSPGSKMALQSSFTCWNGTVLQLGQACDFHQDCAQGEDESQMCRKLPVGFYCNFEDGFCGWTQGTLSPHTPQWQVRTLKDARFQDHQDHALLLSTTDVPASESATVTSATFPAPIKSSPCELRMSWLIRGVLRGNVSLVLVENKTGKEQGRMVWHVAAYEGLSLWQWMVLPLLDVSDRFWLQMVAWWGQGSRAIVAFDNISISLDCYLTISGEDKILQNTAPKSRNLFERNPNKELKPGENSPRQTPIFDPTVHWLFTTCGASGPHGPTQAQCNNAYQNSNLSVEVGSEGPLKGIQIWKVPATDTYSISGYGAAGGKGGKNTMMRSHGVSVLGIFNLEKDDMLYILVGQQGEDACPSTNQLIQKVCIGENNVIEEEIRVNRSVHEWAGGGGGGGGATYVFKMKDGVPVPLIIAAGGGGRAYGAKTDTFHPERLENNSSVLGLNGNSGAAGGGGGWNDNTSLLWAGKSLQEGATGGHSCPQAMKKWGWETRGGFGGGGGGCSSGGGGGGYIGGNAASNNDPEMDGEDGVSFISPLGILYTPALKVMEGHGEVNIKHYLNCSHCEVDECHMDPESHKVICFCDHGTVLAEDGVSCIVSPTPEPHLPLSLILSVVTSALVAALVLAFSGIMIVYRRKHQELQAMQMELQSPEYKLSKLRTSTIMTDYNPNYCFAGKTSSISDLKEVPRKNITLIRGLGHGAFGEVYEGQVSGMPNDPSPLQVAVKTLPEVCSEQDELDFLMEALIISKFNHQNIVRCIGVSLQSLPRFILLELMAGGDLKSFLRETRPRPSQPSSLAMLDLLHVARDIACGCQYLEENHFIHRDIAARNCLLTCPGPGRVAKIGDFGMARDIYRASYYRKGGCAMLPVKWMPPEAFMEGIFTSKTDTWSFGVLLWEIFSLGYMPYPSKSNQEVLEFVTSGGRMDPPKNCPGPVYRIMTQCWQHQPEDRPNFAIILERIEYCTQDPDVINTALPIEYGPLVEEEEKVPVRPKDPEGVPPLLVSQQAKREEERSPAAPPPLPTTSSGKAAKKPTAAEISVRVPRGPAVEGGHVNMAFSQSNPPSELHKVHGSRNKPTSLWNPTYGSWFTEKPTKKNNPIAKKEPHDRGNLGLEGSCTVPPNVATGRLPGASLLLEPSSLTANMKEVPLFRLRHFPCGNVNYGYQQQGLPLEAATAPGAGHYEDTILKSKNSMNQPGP
Summary of the method: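 Wells were coated with phospholipase C-γ at 10 μg/mL in Tris-buffered saline. Adding 30 ng/ml enzyme started the reaction, which ran at 37° C for 15 minutes before Eu-N1 PT66 antibody detection. Percent inhibition versus log10 concentration gave IC50 by variable-slope fit.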

T1 sequence (P08581 956-1390 limits assumed): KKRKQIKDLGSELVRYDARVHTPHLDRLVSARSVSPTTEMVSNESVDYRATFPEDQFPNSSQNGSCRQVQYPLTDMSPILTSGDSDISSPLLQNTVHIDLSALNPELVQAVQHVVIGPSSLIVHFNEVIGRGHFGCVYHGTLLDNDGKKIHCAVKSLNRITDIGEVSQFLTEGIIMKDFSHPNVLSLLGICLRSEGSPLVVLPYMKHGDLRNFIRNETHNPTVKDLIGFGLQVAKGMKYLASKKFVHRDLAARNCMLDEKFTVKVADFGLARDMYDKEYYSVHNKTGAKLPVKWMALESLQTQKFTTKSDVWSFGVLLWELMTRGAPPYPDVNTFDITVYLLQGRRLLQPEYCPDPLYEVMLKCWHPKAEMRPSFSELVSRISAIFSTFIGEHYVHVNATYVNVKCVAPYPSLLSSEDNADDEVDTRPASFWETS

## COc1cc2c(cc1Nc1ncc(Cl)c(N[C@H]3[C@@H](C(N)=O)[C@@H]4C=C[C@H]3C4)n1)CCN(CC(F)F)CC2 [Example 806, (1S,2S,3R,4R)-3-{5-Chloro-2-[3-(2,2-difluoro-ethyl)-8-methoxy-2,3,4,5-tetrahydro-1H-benzo[d]azepin-7-ylamino]-pyrimidin-4-ylamino}-bicyclo[2.2.1]hept-5-ene-2-carboxylic acid amide]
[1]
  IC50: > 10000 nM
[2]
  IC50: < 100 nM

## COc1cc2c(cc1Nc1ncc(Cl)c(Nc3ccc(N4CCN(C)CC4)cc3OC)n1)CCN(CC(N)=O)CC2 [Example 807, 2-(7-{5-Chloro-4-[2-methoxy-4-(4-methyl-piperazin-1-yl)-phenylamino]-pyrimidin-2-ylamino}-8-methoxy-1,2,4,5-tetrahydro-benzo[d]azepin-3-yl)-acetamide]
[1]
  IC50: > 10000 nM
[2]
  IC50: < 100 nM

## COc1cc2c(cc1Nc1ncc(F)c(Nc3ccc(N4CCOCC4)cc3OC)n1)CCN(CC(=O)N(C)C)CC2 [Example 808, 2-{7-[5-Fluoro-4-(2-methoxy-4-morpholin-4-yl-phenylamino)-pyrimidin-2-ylamino]-8-methoxy-1,2,4,5-tetrahydro-benzo[d]azepin-3-yl}-N,N-dimethyl-acetamide]
[1]
  IC50: > 10000 nM
[2]
  IC50: < 100 nM

## CNC(=O)CN1CCc2cc(Nc3ncc(F)c(Nc4ccc(N5CCOCC5)cc4OC)n3)c(OC)cc2CC1 [Example 809, 2-{7-[5-Fluoro-4-(2-methoxy-4-morpholin-4-yl-phenylamino)-pyrimidin-2-ylamino]-8-methoxy-1,2,4,5-tetrahydro-benzo[d]azepin-3-yl}-N-methyl-acetamide]
[1]
  IC50: > 10000 nM
[2]
  IC50: < 100 nM

## COc1cc2c(cc1Nc1ncc(F)c(Nc3ccc(N4CCOCC4)cc3OC)n1)CCN(CC(N)=O)CC2 [Example 810, 2-{7-[5-Fluoro-4-(2-methoxy-4-morpholin-4-yl-phenylamino)-pyrimidin-2-ylamino]-8-methoxy-1,2,4,5-tetrahydro-benzo[d]azepin-3-yl}-acetamide]
[1]
  IC50: > 10000 nM
[2]
  IC50: < 100 nM

## COc1cc2c(cc1Nc1ncc(F)c(Nc3ccc(N4CCOCC4)cc3OC)n1)CCN(CC(=O)OC(C)C)CC2 [Example 811, {7-[5-Fluoro-4-(2-methoxy-4-morpholin-4-yl-phenylamino)-pyrimidin-2-ylamino]-8-methoxy-1,2,4,5-tetrahydro-benzo[d]azepin-3-yl}-acetic acid isopropyl ester]
[1]
  IC50: > 10000 nM
[2]
  IC50: 100 to 1000 nM

## COCC(COC)N1CCc2cc(Nc3ncc(Cl)c(Nc4ccc(N5CCOCC5)cc4OC)n3)c(OC)cc2CC1 [Example 814, 5-Chloro-N*2*-[8-methoxy-3-(2-methoxy-1-methoxymethyl-ethyl)-2,3,4,5-tetrahydro-1H-benzo[d]azepin-7-yl]-N*4*-(2-methoxy-4-morpholin-4-yl-phenyl)-pyrimidine-2,4-diamine]
[1]
  IC50: > 10000 nM
[2]
  IC50: < 100 nM

## COCC(COC)N1CCc2cc(Nc3ncc(Cl)c(N[C@H]4[C@@H](C(N)=O)[C@@H]5C=C[C@H]4C5)n3)c(OC)cc2CC1 [Example 815, (1S,2S,3R,4R)-3-{5-Chloro-2-[8-methoxy-3-(2-methoxy-1-methoxymethyl-ethyl)-2,3,4,5-tetrahydro-1H-benzo[d]azepin-7-ylamino]-pyrimidin-4-ylamino}-bicyclo[2.2.1]hept-5-ene-2-carboxylic acid amide]
[1]
  IC50: > 10000 nM
[2]
  IC50: < 100 nM

## COCC(COC)N1CCc2cc(Nc3ncc(Cl)c(N[C@@H]4CCCC[C@H]4NS(C)(=O)=O)n3)c(OC)cc2CC1 [Example 816, N-((1R,2R)-2-{5-Chloro-2-[8-methoxy-3-(2-methoxy-1-methoxymethyl-ethyl)-2,3,4,5-tetrahydro-1H-benzo[d]azepin-7-ylamino]-pyrimidin-4-ylamino}-cyclohexyl)-methanesulfonamide]
[1]
  IC50: > 10000 nM
[2]
  IC50: < 100 nM

## COCC(COC)N1CCc2cc(Nc3ncc(Cl)c(Nc4ccccc4S(=O)(=O)C(C)C)n3)c(OC)cc2CC1 [Example 817, 5-Chloro-N*2*-[8-methoxy-3-(2-methoxy-1-methoxymethyl-ethyl)-2,3,4,5-tetrahydro-1H-benzo[d]azepin-7-yl]-N*4*-[2-(propane-2-sulfonyl)-phenyl]-pyrimidine-2,4-diamine]
[1]
  IC50: > 10000 nM
[2]
  IC50: < 100 nM

## COCC(COC)N1CCc2cc(Nc3ncc(Cl)c(Nc4ccccc4S(=O)(=O)N(C)C)n3)c(OC)cc2CC1 [Example 818, 2-{5-Chloro-2-[8-methoxy-3-(2-methoxy-1-methoxymethyl-ethyl)-2,3,4,5-tetrahydro-1H-benzo[d]azepin-7-ylamino]-pyrimidin-4-ylamino}-N,N-dimethyl-benzenesulfonamide]
[1]
  IC50: > 10000 nM
[2]
  IC50: < 100 nM

## COc1cc2c(cc1Nc1ncc(Cl)c(Nc3ccc(N4CCC(N5CCN(C)CC5)CC4)cc3OC)n1)CCN(CC(=O)N(C)C)CC2 [Example 819, 2-[7-(5-Chloro-4-{2-methoxy-4-[4-(4-methyl-piperazin-1-yl)-piperidin-1-yl]-phenylamino}-pyrimidin-2-ylamino)-8-methoxy-1,2,4,5-tetrahydro-benzo[d]azepin-3-yl]-N,N-dimethyl-acetamide]
[1]
  IC50: > 10000 nM
[2]
  IC50: < 100 nM

## COc1ccc(Nc2nc(Nc3cc4c(cc3OC)CCN(CC(=O)N(C)C)CC4)ncc2Cl)c(S(=O)(=O)N(C)C)c1 [Example 820, 2-{7-[5-Chloro-4-(2-dimethylsulfamoyl-4-methoxy-phenylamino)-pyrimidin-2-ylamino]-8-methoxy-1,2,4,5-tetrahydro-benzo[d]azepin-3-yl}-N,N-dimethyl-acetamide]
[1]
  IC50: > 10000 nM
[2]
  IC50: < 100 nM

## COc1ccc(Nc2nc(Nc3cc4c(cc3OC)CCN(CC(=O)N(C)C)CC4)ncc2Cl)c(NS(C)(=O)=O)c1 [Example 821, 2-{7-[5-Chloro-4-(2-methanesulfonylamino-4-methoxy-phenylamino)-pyrimidin-2-ylamino]-8-methoxy-1,2,4,5-tetrahydro-benzo[d]azepin-3-yl}-N,N-dimethyl-acetamide]
[1]
  IC50: > 10000 nM
[2]
  IC50: < 100 nM

## COc1cc2c(cc1Nc1ncc(Cl)c(Nc3ccccc3S(=O)(=O)N(C)C)n1)CCN(CC(F)F)CC2 [Example 822, 2-{5-Chloro-2-[3-(2,2-difluoro-ethyl)-8-methoxy-2,3,4,5-tetrahydro-1H-benzo[d]azepin-7-ylamino]-pyrimidin-4-ylamino}-N,N-dimethyl-benzenesulfonamide]
[1]
  IC50: > 10000 nM
[2]
  IC50: < 100 nM

## COc1cc2c(cc1Nc1ncc(Cl)c(Nc3ccccc3-n3cccn3)n1)CCN(CC(F)F)CC2 [Example 823, 5-Chloro-N*2*-[3-(2,2-difluoro-ethyl)-8-methoxy-2,3,4,5-tetrahydro-1H-benzo[d]azepin-7-yl]-N*4*-(2-pyrazol-1-yl-phenyl)-pyrimidine-2,4-diamine]
[1]
  IC50: > 10000 nM
[2]
  IC50: < 100 nM

## COc1cc2c(cc1Nc1ncc(Cl)c(Nc3ccccc3S(=O)(=O)N(C)C)n1)CCN(CC(C)(F)F)CC2 [Example 824, 2-{5-Chloro-2-[3-(2,2-difluoro-propyl)-8-methoxy-2,3,4,5-tetrahydro-1H-benzo[d]azepin-7-ylamino]-pyrimidin-4-ylamino}-N,N-dimethyl-benzenesulfonamide]
[1]
  IC50: > 10000 nM
[2]
  IC50: < 100 nM

## COc1cc2c(cc1Nc1ncc(Cl)c(Nc3ccccc3-n3cccn3)n1)CCN(CC(C)(F)F)CC2 [Example 825, 5-Chloro-N*2*-[3-(2,2-difluoro-propyl)-8-methoxy-2,3,4,5-tetrahydro-1H-benzo[d]azepin-7-yl]-N*4*-(2-pyrazol-1-yl-phenyl)-pyrimidine-2,4-diamine]
[1]
  IC50: > 10000 nM
[2]
  IC50: 100 to 1000 nM

## COc1ccc(Nc2nc(Nc3cc4c(cc3OC)CCN(CC(=O)N(C)C)CC4)ncc2Cl)c(N(C)C)c1 [Example 826, 2-{7-[5-Chloro-4-(2-dimethylamino-4-methoxy-phenylamino)-pyrimidin-2-ylamino]-8-methoxy-1,2,4,5-tetrahydro-benzo[d]azepin-3-yl}-N,N-dimethyl-acetamide]
[1]
  IC50: > 10000 nM
[2]
  IC50: < 100 nM

## COc1cc2c(cc1Nc1ncc(Cl)c(Nc3ccccc3S(=O)(=O)C(C)C)n1)CCN(CC(F)F)CC2 [Example 827, 5-Chloro-N*2*-[3-(2,2-difluoro-ethyl)-8-methoxy-2,3,4,5-tetrahydro-1H-benzo[d]azepin-7-yl]-N*4*-[2-(propane-2-sulfonyl)-phenyl]-pyrimidine-2,4-diamine]
[1]
  IC50: > 10000 nM
[2]
  IC50: < 100 nM

## COc1cc2c(cc1Nc1ncc(Cl)c(Nc3ccccc3S(=O)(=O)C(C)C)n1)CCN(CC(C)(F)F)CC2 [Example 828, 5-Chloro-N*2*-[3-(2,2-difluoro-propyl)-8-methoxy-2,3,4,5-tetrahydro-1H-benzo[d]azepin-7-yl]-N*4*-[2-(propane-2-sulfonyl)-phenyl]-pyrimidine-2,4-diamine]
[1]
  IC50: > 10000 nM
[2]
  IC50: < 100 nM

## COc1ccc(Nc2nc(Nc3cc4c(cc3OC)CCN(CC(=O)N(C)C)CC4)ncc2Cl)c(N2CCOCC2)c1 [Example 829, 2-{7-[5-Chloro-4-(4-methoxy-2-morpholin-4-yl-phenylamino)-pyrimidin-2-ylamino]-8-methoxy-1,2,4,5-tetrahydro-benzo[d]azepin-3-yl}-N,N-dimethyl-acetamide]
[1]
  IC50: > 10000 nM
[2]
  IC50: < 100 nM

## COc1cc2c(cc1Nc1ncc(Cl)c(Nc3ccc(C)cc3S(=O)(=O)N(C)C)n1)CCN(CC(=O)N(C)C)CC2 [Example 830, 2-{7-[5-Chloro-4-(2-dimethylsulfamoyl-4-methyl-phenylamino)-pyrimidin-2-ylamino]-8-methoxy-1,2,4,5-tetrahydro-benzo[d]azepin-3-yl}-N,N-dimethyl-acetamide]
[1]
  IC50: > 10000 nM
[2]
  IC50: < 100 nM
